pKi: −log10 of the molar value.
target: human capsaicin receptor (VR1) (Homo sapiens, UniProt Q8NER1); assay: Capsaicin receptor binding assay ([3H]RTX competition, VR1-transfected HEK293 membranes)
Sequence (Q8NER1 whole entry): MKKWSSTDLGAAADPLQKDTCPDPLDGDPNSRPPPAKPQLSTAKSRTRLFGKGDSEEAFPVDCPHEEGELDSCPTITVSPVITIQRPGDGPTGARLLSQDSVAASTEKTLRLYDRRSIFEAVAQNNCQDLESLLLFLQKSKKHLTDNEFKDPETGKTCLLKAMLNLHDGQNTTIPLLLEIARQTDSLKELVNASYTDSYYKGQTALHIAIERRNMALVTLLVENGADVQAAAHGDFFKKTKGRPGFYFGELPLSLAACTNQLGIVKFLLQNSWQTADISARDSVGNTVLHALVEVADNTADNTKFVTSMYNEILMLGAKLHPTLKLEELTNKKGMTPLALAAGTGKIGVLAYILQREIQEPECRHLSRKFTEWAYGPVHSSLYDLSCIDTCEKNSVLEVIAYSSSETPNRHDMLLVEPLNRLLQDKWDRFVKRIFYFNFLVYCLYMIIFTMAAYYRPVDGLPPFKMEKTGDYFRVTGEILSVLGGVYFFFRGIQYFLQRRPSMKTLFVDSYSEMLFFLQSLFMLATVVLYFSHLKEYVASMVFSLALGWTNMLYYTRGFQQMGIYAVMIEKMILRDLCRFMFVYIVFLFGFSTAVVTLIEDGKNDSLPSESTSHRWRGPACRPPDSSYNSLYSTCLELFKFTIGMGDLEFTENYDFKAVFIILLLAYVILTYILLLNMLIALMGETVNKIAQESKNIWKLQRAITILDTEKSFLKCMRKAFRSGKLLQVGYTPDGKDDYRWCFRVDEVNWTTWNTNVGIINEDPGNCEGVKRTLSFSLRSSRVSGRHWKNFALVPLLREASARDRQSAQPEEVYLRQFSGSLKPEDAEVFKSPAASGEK

pKi, > 6.00:
CCCN(CCC)Cc1nc(Nc2ccc(C(F)(F)F)cc2)c2ccc(-c3ncccc3C(F)(F)F)cc2n1 [Compound 550, [2-Dipropylaminomethyl-7-(3-trifluoromethyl-pyridin-2-yl)-quinazolin-4-yl]-(4-trifluoromethyl-phenyl)-amine]
CCCN(CCC)C(=O)c1nc(Nc2ccc(C(F)(F)F)cc2)c2ccc(-c3ncccc3C(F)(F)F)nc2n1 [Compound 466, 4-(4-Trifluoromethyl-phenylamino)-7-(3-trifluoromethyl-pyridin-2-yl)-pyrido[2,3-d]pyrimidine-2-carboxylic acid dipropylamide]
CCOCc1nc(Nc2ccc(C(F)(F)F)cc2)c2ccc(-c3ncccc3C)nc2n1 [Compound 138, [2-Ethoxymethyl-7-(3-methyl-pyridin-2-yl)-pyrido[2,3-d]pyrimidin-4-yl]-(4-trifluoromethyl-phenyl)-amine]
CN(C)CCN1CCN(Cc2nc(Nc3ccc(C(F)(F)F)cc3)c3ccc(-c4ncccc4C(F)(F)F)cc3n2)CC1 [Compound 515, [2-[4-(2-Dimethylamino-ethyl)-piperazin-1-ylmethyl]-7-(3-trifluoromethyl-pyridin-2-yl)-quinazolin-4-yl]-(4-trifluoromethyl-phenyl)-amine]
COCc1nc(Nc2ccc(C(F)(F)F)cc2)c2ccc(-c3ncccc3C(F)(F)F)nc2n1 [Compound 109, [2-Methoxymethyl-7-(3-trifluoromethyl-pyridin-2-yl)-pyrido[2,3-d]pyrimidin-4-yl]-(4-trifluoromethyl-phenyl)-amine]
CCC(c1ccccc1)N(C)Cc1nc(Nc2ccc(C(F)(F)F)nc2)c2ccc(-c3ncccc3C(F)(F)F)cc2n1 (centres unmarked) [Compound 350, [2-{[Methyl-1-(1-phenyl-propyl)-amino]-methyl}-7-(3-trifluoromethyl-pyridin-2-yl)-quinazolin-4-yl]-(6-trifluoromethyl-pyridin-3-yl)-amine]
OCC1CCN(Cc2nc(Nc3ccc(C(F)(F)F)cc3)c3ccc(-c4ncccc4C(F)(F)F)cc3n2)CC1 [Compound 495, {1-[4-(4-Trifluoromethyl-phenylamino)-7-(3-trifluoromethyl-pyridin-2-yl)-quinazolin-2-ylmethyl]-piperidin-4-yl}-methanol]
COCc1nc(Nc2ccc(OC(F)(F)F)cc2)c2ccc(-c3ncccc3Cl)nc2n1 [Compound 195, [7-(3-Chloro-pyridin-2-yl)-2-methoxymethyl-pyrido[2,3-d]pyrimidin-4-yl]-(4-trifluoromethoxy-phenyl)-amine]
CC(C)c1ccc(Nc2nc(CO)nc3cc(-c4ncccc4Cl)ccc23)cc1 [Compound 158, [7-(3-Chloro-pyridin-2-yl)-4-(4-isopropyl-phenylamino)-quinazolin-2-yl]-methanol]
Cc1ccccc1CN(C)Cc1nc(Nc2ccc(C(F)(F)F)nc2)c2ccc(-c3ncccc3C(F)(F)F)cc2n1 [Compound 354, [2-{[Methyl-(2-methyl-benzyl)-amino]-methyl}-7-(3-trifluoromethyl-pyridin-2-yl)-quinazolin-4-yl]-(6-trifluoromethyl-pyridin-3-yl)-amine]
CN(C)CCOCc1cc(Nc2ccc(C(F)(F)F)cc2)c2ccc(-c3ncccc3C(F)(F)F)nc2n1 [Compound 309, [2-(2-Dimethylamino-ethoxymethyl)-7-(3-trifluoromethyl-pyridin-2-yl)-[1,8]naphthyridin-4-yl]-(4-trifluoromethyl-phenyl)-amine]
Cc1cccnc1-c1ccc2c(Nc3ccc(C(C)(C)C)cc3)nc(CO)nc2n1 [Compound 204, [4-(4-tert-Butyl-phenylamino)-7-(3-methyl-pyridin-2-yl)-pyrido[2,3d]pyrimidin-2-yl]-methanol]
CCOCc1nc(Nc2ccc(C(F)(F)F)nc2)c2ccc(-c3ncccc3Cl)nc2n1 [Compound 146, [7-(3-Chloro-pyridin-2-yl)-2-ethoxymethyl-pyrido[2,3-d]pyrimidin-4-yl]-(6-trifluoromethyl-pyridin-3-yl)-amine]
COCc1cc2nc(-c3ncccc3C(F)(F)F)ccc2c(Nc2ccc(C(F)(F)F)cc2)n1 [Compound 295, [7-Methoxymethyl-2-(3-trifluoromethyl-pyridin-2-yl)-[1,6]naphthyridin-5-yl]-(4-trifluoromethyl-phenyl)-amine]
Cc1cccnc1-c1ccc2c(Nc3ccc(C(C)C)cc3)nc(COC3CCOCC3)nc2c1 [Compound 106, (4-Isopropyl-phenyl)-[7-(3-methyl-pyridin-2-yl)-2-(tetrahydro-pyran-4-yloxymethyl)-quinazolin-4-yl]-amine]
C=CCN(C)Cc1nc(Nc2ccc(C(F)(F)F)nc2)c2ccc(-c3ncccc3C(F)(F)F)cc2n1 [Compound 367, [2-[(Allyl-methyl-amino)-methyl]-7-(3-trifluoromethyl-pyridin-2-yl)-quinazolin-4-yl]-(6-trifluoromethyl-pyridin-3-yl)-amine]
COc1ncc(-c2ccc3c(Nc4ccc(C(C)(C)C)cc4)nc(CN4C[C@@H](C)O[C@@H](C)C4)nc3c2)c(OC)n1 [Compound 678, (4-tert-Butyl-phenyl)-[7-(2,4-dimethoxy-pyrimidin-5-yl)-2-(2,6-dimethyl-morpholin-4-ylmethyl)-quinazolin-4-yl]-amine (cis)]
CO[C@H](C)c1nc(Nc2ccc(C(F)(F)F)cc2)c2ccc(-c3ncccc3Cl)nc2n1 [Compound 245, (R)-[7-(3-Chloro-pyridin-2-yl)-2-(1-methoxy-ethyl)-pyrido[2,3-d]pyrimidin-4-yl]-(4-trifluoromethyl-phenyl)-amine]
COCCN(CCOC)Cc1nc(Nc2ccc(C(F)(F)F)cc2)c2ccc(-c3ncccc3C(F)(F)F)cc2n1 [Compound 344, [2-{[Bis-(2-methoxy-ethyl)-amino]-methyl}-7-(3-trifluoromethyl-pyridin-2-yl)-quinazolin-4-yl]-(4-trifluoromethyl-phenyl)-amine]
CC(C)COCc1cc2nc(-c3ncccc3C(F)(F)F)ccc2c(Nc2ccc(C(F)(F)F)cc2)n1 [Compound 296, [7-Isobutoxymethyl-2-(3-trifluoromethyl-pyridin-2-yl)-[1,6]naphthyridin-5-yl]-(4-trifluoromethyl-phenyl)-amine]
FC(F)(F)c1ccc(Nc2nc(COCc3cccnc3)nc3cc(-c4ncccc4C(F)(F)F)ccc23)cn1 [Compound 45, [2-(Pyridin-3-ylmethoxymethyl)-7-(3-trifluoromethyl-pyridin-2-yl)-quinazolin-4-yl]-(6-trifluoromethyl-pyridin-3-yl)-amine]
CCCN(C)Cc1nc(Nc2ccc(C(C)C)cc2)c2ccc(-c3ncccc3C)cc2n1 [Compound 716, (4-Isopropyl-phenyl)-[2-[(methyl-propyl-amino)-methyl]-7-(3-methyl-pyridin-2-yl)-quinazolin-4-yl]-amine]
Cc1cccnc1-c1ccc2c(Nc3ccc(C(C)C)cc3)nc(CN(C)C)nc2c1 [Compound 711, [2-Dimethylaminomethyl-7-(3-methyl-pyridin-2-yl)-quinazolin-4-yl]-(4-isopropyl-phenyl)-amine]

Reference: patent publication US20040156869A1, “2-substituted quinazolin-4-ylamine analogues” (Neurogen Corporation, priority 2002, published 2004)
